# From publication PMC4666608, “Metabolic Profiling of Chicken Embryos Exposed to Perfluorooctanoic Acid (PFOA) and Agonists to Peroxisome Proliferator-Activated Receptors” (PLoS ONE, 2015)
# Marks after values point to notes of the source that are not given here.
# System: chicken embryos
# Experiment: Metabolic profiling of allantoic fluid (GC-MS, LC-MS, OPLS-DA)
# Format: in vivo, Gallus gallus domesticus
# Conditions: LC; for Mean concentration relative to control, feature 155.0353@0.6447272: suggested C3H10NO4P; for Mean concentration relative to control, feature 345.0497@1.1234403: suggested C10H12N5O7P; for Mean concentration relative to control, feature 337.0259@4.4213357: suggested C13H11N3O4S2; for Mean concentration relative to control, feature 344.1427@2.1164653: suggested C13H20N4O7; for Mean concentration relative to control, feature 331.184@6.373359: suggested C13H25N5O5; for Mean concentration relative to control, feature 361.2026@5.6644735: suggested C16H31N3O4S
# Description: Controls were injected with 20 μL vehicle only (DMSO).
# Plasma was collected and stored at -70°C.
# Metabolites in allantoic fluid and blood plasma were analyzed using gas chromatography-mass spectrometry (GC-MS) and liquid chromatography-mass spectrometry (LC-MS) as described in S1 Methods. Prior to GC-MS and LC-MS analysis, allantoic fluid (100 μL) and blood plasma (50 μL) were extracted. To each sample, 900 μL (allantoic fluid) or 450 μL (blood plasma) of extraction buffer (90/10 v/v methanol:water) including all internal standards were added. Standards for GC-MS were proline, succinic acid, glutamic acid, salicylic acid, alpha-ketoglutarate, putrescine, myristic acid, hexadecanoic acid, cholesterol, and sucrose. Standards for LC-MS were Val-Tyr-Val, Leu-enkephalin, sulfadimethoxine and reserpine. Samples were homogenized by shaking in a bead mill at a frequency of 30 Hz for 3 minutes and proteins were precipitated at +4°C on ice. The samples were centrifuged at +4°C, 14000 rpm, for 10 min. Then, 200 μL supernatant was transferred to a GC microvial and 200 μL was transferred to an LC microvial, and solvents were evaporated. Samples from the four replicate experiments were analyzed using in chronological order and within each replicate experiment the run order of the individual samples was randomized.
# Multivariate statistical analyses of metabolite profiles were performed using the software package SIMCA-P version 13.0 (Umetrics, Umeå, Sweden). Data was centered and scaled to variance 1 (UV scaling) prior to modelling. To reduce unintended systematic variation caused by sample processing and instrument drift, GC-MS and LC-MS metabolite amounts (expressed as the area under the chromatographic peak) were normalized by Orthogonal Partial Least Squares analysis (O2PLS) prior to multivariate data analysis. O2PLS finds common (predictive) and unique (orthogonal) variation in two data matrices. If applied to find the common variation between the data matrix containing the measured metabolite concentrations and a matrix containing only the internal standards, the only common (predictive) variation expected is due to the unintended systematic variation. By deleting the contribution of the predictive latent variables, that variation can be removed from the data. Models obtained after this normalization contain in general less latent variables, and this simplification helps when deciding on the number of latent variables to be used. Following normalization, GC-MS and LC-MS data were analyzed together. Initially, a global Principal Component Analysis (PCA) was performed to get an overview of groups and trends and to identify outliers. Projections to latent structures by means of Orthogonal Partial Least Squares Discriminant Analysis (OPLS-DA) was used to model the relationship between the X-matrix (metabolite concentrations) and the Y matrix (class, i.e. exposure group or sex), and to find x-variables that were related to class belonging. OPLS-DA is a supervised prediction and regression method that rotates the projection plane to find the maximum covariance between the data and the class assignment. All groups were first analyzed together in a 5-class OPLS-DA and then each exposure group was analyzed against the control group in a 2-class OPLS-DA. Sex differences were analyzed both using the whole data set and in each group separately using 2-class OPLS-DA, with females and males as the two classes. Only variables with 80% or more nonzero values were included in the statistical models. […] The validity of each model was also checked using CV-ANOVA (ANOVA of the cross-validated residuals). A significance level of p < 0.05 was used. For each model, R ^2 X, R ^2 Y and Q ^2 values were calculated, where R ^2 X is a measure of the fraction of x variation modeled in the extracted latent variables, R ^2 Y is a measure of the fraction of y variation modeled and Q ^2 is an estimate of the predictive ability of the model and is calculated by cross-validation. […]
structure (smiles),measurement,setting,value
"O=C(O)C(F)(F)C(F)(F)C(F)(F)C(F)(F)C(F)(F)C(F)(F)C(F)(F)F [PFOA, perfluorooctanoic acid]","Mean concentration relative to control, feature 466.0837@2.1187525",PFOA 50 μg/egg,1.0
same,"Mean concentration relative to control, feature 488.0753@4.419585",PFOA 50 μg/egg,1.0
same,"Mean concentration relative to control, feature 498.1003@2.1184251",PFOA 50 μg/egg,1.0
same,"Mean concentration relative to control, feature 507.1682@2.1238236",PFOA 50 μg/egg,1.0
same,"Mean concentration relative to control, feature 580.1426@3.0726147",PFOA 50 μg/egg,1.0
same,"Mean concentration relative to control, feature 582.1578@2.1747615",PFOA 50 μg/egg,1.0
same,"Mean concentration relative to control, feature 588.1751@2.1182237",PFOA 50 μg/egg,1.0
same,"Mean concentration relative to control, feature 594.1337@3.0724604",PFOA 50 μg/egg,1.0
same,"Mean concentration relative to control, feature 604.1486@2.1174603",PFOA 50 μg/egg,1.0
same,"Mean concentration relative to control, feature 623.183@2.1249466",PFOA 50 μg/egg,0.9
same,"Mean concentration relative to control, feature 668.2625@6.4379454",PFOA 50 μg/egg,1.0
same,"Mean concentration relative to control, feature 155.0353@0.6447272",PFOA 50 μg/egg,0.4*
same,"Mean concentration relative to control, feature 345.0497@1.1234403",PFOA 50 μg/egg,1.1
same,"Mean concentration relative to control, feature 337.0259@4.4213357",PFOA 50 μg/egg,1.0
same,"Mean concentration relative to control, feature 344.1427@2.1164653",PFOA 50 μg/egg,1.0
same,"Mean concentration relative to control, feature 331.184@6.373359",PFOA 50 μg/egg,0.9
same,"Mean concentration relative to control, feature 361.2026@5.6644735",PFOA 50 μg/egg,0.8
same,"Mean concentration relative to control, feature 134.0239@1.1350567",PFOA 250 μg/egg,0.9
same,"Mean concentration relative to control, feature 145.0538@3.072527",PFOA 250 μg/egg,1.1
same,"Mean concentration relative to control, feature 147.0328@3.0722888",PFOA 250 μg/egg,1.1
same,"Mean concentration relative to control, feature 160.0323@1.1950632",PFOA 250 μg/egg,1.1
same,"Mean concentration relative to control, feature 173.0488@3.0734746",PFOA 250 μg/egg,1.1
same,"Mean concentration relative to control, feature 176.0952@1.3890611",PFOA 250 μg/egg,0.5*
same,"Mean concentration relative to control, feature 178.0428@1.7582192",PFOA 250 μg/egg,1.0
same,"Mean concentration relative to control, feature 180.0048@4.421465",PFOA 250 μg/egg,1.0
same,"Mean concentration relative to control, feature 189.1159@1.9209185",PFOA 250 μg/egg,0.9
same,"Mean concentration relative to control, feature 197.0639@2.1181405",PFOA 250 μg/egg,1.0
same,"Mean concentration relative to control, feature 201.012@3.046474",PFOA 250 μg/egg,1.1
same,"Mean concentration relative to control, feature 202.0429@2.9548414",PFOA 250 μg/egg,1.0
same,"Mean concentration relative to control, feature 205.0533@4.421879",PFOA 250 μg/egg,1.0
same,"Mean concentration relative to control, feature 214.016@2.1190732",PFOA 250 μg/egg,0.9
same,"Mean concentration relative to control, feature 226.0107@4.421457",PFOA 250 μg/egg,1.0
same,"Mean concentration relative to control, feature 236.0816@3.0720985",PFOA 250 μg/egg,1.1
same,"Mean concentration relative to control, feature 241.0551@2.3510706",PFOA 250 μg/egg,1.0
same,"Mean concentration relative to control, feature 243.1118@2.1537287",PFOA 250 μg/egg,1.0
same,"Mean concentration relative to control, feature 244.9972@4.421603",PFOA 250 μg/egg,1.0
same,"Mean concentration relative to control, feature 245.1563@2.2907295",PFOA 250 μg/egg,0.9
same,"Mean concentration relative to control, feature 250.0981@3.072492",PFOA 250 μg/egg,1.1
same,"Mean concentration relative to control, feature 262.0978@2.7961144",PFOA 250 μg/egg,1.1
same,"Mean concentration relative to control, feature 263.0855@2.2847009",PFOA 250 μg/egg,1.0
same,"Mean concentration relative to control, feature 270.0441@1.1407775",PFOA 250 μg/egg,1.0
same,"Mean concentration relative to control, feature 278.0928@3.0723689",PFOA 250 μg/egg,1.1
same,"Mean concentration relative to control, feature 279.1248@2.796395",PFOA 250 μg/egg,1.2
same,"Mean concentration relative to control, feature 280.1425@2.730277",PFOA 250 μg/egg,1.0
same,"Mean concentration relative to control, feature 288.1166@2.9551322",PFOA 250 μg/egg,1.2
same,"Mean concentration relative to control, feature 289.1012@3.249983",PFOA 250 μg/egg,1.0
same,"Mean concentration relative to control, feature 289.173@7.5030584",PFOA 250 μg/egg,1.2
same,"Mean concentration relative to control, feature 294.1242@2.3692534",PFOA 250 μg/egg,1.0
same,"Mean concentration relative to control, feature 302.0508@3.0722616",PFOA 250 μg/egg,1.1
same,"Mean concentration relative to control, feature 305.1682@5.353517",PFOA 250 μg/egg,0.5***
same,"Mean concentration relative to control, feature 305.1684@5.2955093",PFOA 250 μg/egg,0.7**
same,"Mean concentration relative to control, feature 308.073@4.4211636",PFOA 250 μg/egg,1.0
same,"Mean concentration relative to control, feature 310.1181@1.5090439",PFOA 250 μg/egg,1.0
same,"Mean concentration relative to control, feature 316.0389@3.0725708",PFOA 250 μg/egg,1.1
same,"Mean concentration relative to control, feature 320.0626@3.0729218",PFOA 250 μg/egg,1.1
same,"Mean concentration relative to control, feature 325.1114@2.1190624",PFOA 250 μg/egg,1.1
same,"Mean concentration relative to control, feature 325.1115@2.3554378",PFOA 250 μg/egg,1.1
same,"Mean concentration relative to control, feature 333.1335@2.8639288",PFOA 250 μg/egg,0.9
same,"Mean concentration relative to control, feature 333.2005@6.5291867",PFOA 250 μg/egg,0.8*
same,"Mean concentration relative to control, feature 335.1866@4.508565",PFOA 250 μg/egg,0.9
same,"Mean concentration relative to control, feature 337.1651@1.8737898",PFOA 250 μg/egg,0.9
same,"Mean concentration relative to control, feature 344.1424@2.348947",PFOA 250 μg/egg,1.0
same,"Mean concentration relative to control, feature 348.0553@3.0730357",PFOA 250 μg/egg,1.1
same,"Mean concentration relative to control, feature 349.1651@2.4087605",PFOA 250 μg/egg,0.9
same,"Mean concentration relative to control, feature 357.1997@6.9691257",PFOA 250 μg/egg,0.9
same,"Mean concentration relative to control, feature 371.1513@3.0009465",PFOA 250 μg/egg,1.2
same,"Mean concentration relative to control, feature 375.1819@3.672254",PFOA 250 μg/egg,0.9
same,"Mean concentration relative to control, feature 394.167@3.9552917",PFOA 250 μg/egg,1.0
same,"Mean concentration relative to control, feature 414.1482@2.118972",PFOA 250 μg/egg,1.1
same,"Mean concentration relative to control, feature 466.0837@2.1187525",PFOA 250 μg/egg,1.1
same,"Mean concentration relative to control, feature 488.0753@4.419585",PFOA 250 μg/egg,1.0
same,"Mean concentration relative to control, feature 498.1003@2.1184251",PFOA 250 μg/egg,1.0
same,"Mean concentration relative to control, feature 507.1682@2.1238236",PFOA 250 μg/egg,1.0
same,"Mean concentration relative to control, feature 580.1426@3.0726147",PFOA 250 μg/egg,1.2
same,"Mean concentration relative to control, feature 582.1578@2.1747615",PFOA 250 μg/egg,1.2
same,"Mean concentration relative to control, feature 588.1751@2.1182237",PFOA 250 μg/egg,1.1
same,"Mean concentration relative to control, feature 594.1337@3.0724604",PFOA 250 μg/egg,1.2
same,"Mean concentration relative to control, feature 604.1486@2.1174603",PFOA 250 μg/egg,1.0
same,"Mean concentration relative to control, feature 623.183@2.1249466",PFOA 250 μg/egg,1.1
same,"Mean concentration relative to control, feature 668.2625@6.4379454",PFOA 250 μg/egg,1.0
same,"Mean concentration relative to control, feature 155.0353@0.6447272",PFOA 250 μg/egg,0.3*
same,"Mean concentration relative to control, feature 345.0497@1.1234403",PFOA 250 μg/egg,1.1
same,"Mean concentration relative to control, feature 337.0259@4.4213357",PFOA 250 μg/egg,1.0
same,"Mean concentration relative to control, feature 344.1427@2.1164653",PFOA 250 μg/egg,1.0
same,"Mean concentration relative to control, feature 331.184@6.373359",PFOA 250 μg/egg,0.7**
same,"Mean concentration relative to control, feature 361.2026@5.6644735",PFOA 250 μg/egg,0.9
